Source: ChEMBL document CHEMBL1201862, “PubChem BioAssay data set” (2004)
Active and inactive are the calls of the source.

Legend:
cells [1] = format: functional
[2] = target: Luciferin 4-monooxygenase (Photinus pyralis, UniProt P08659); assay: inhibition of purified Photinus pyralis luciferase – biochemical, luminescence, dose response (AID 1891)
[3] = Luminescence Cell-Based Dose Confirmation HTS to Identify Inhibitors of Platelet Dense Granule Release. [Related pubchem assays: 1663 (Primary HTS), 1678 (Summary of Project)]; format: functional
[4] = target: Induced myeloid leukemia cell differentiation protein Mcl-1 (Homo sapiens, UniProt Q07820); format: functional
Sequence of Induced myeloid leukemia cell differentiation protein Mcl-1 (Q07820 whole entry): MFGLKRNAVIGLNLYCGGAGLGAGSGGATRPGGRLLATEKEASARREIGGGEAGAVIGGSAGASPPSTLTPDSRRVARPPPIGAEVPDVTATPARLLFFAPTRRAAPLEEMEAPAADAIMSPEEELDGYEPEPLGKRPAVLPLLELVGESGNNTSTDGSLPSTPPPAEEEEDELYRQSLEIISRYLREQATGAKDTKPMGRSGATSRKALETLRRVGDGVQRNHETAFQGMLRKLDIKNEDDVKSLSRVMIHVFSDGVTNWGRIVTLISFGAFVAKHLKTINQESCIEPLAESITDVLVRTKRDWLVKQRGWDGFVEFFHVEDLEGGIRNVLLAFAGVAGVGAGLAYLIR

[5] = NIH-3T3 fibroblast cytotoxicity, dose response, cytotoxicity control, cell-based, fluorescence, Alamar Blue, secondary assay (AID 2327); format: functional;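 further: NIH-3T3 mouse fibroblasts cultured with fluconazole at 8 µg/mL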
cells [6] = format: functional, cell-based
cells [7] = format: functional, cell-based; remark: listed apart in the source
Cytochrome P450 1A2 = target: T1, Cytochrome P450 1A2 (Homo sapiens, UniProt P05177);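 further: PubChem cytochrome P450 panel assay, CYP1A2 panel member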
T1 sequence (P05177 whole entry): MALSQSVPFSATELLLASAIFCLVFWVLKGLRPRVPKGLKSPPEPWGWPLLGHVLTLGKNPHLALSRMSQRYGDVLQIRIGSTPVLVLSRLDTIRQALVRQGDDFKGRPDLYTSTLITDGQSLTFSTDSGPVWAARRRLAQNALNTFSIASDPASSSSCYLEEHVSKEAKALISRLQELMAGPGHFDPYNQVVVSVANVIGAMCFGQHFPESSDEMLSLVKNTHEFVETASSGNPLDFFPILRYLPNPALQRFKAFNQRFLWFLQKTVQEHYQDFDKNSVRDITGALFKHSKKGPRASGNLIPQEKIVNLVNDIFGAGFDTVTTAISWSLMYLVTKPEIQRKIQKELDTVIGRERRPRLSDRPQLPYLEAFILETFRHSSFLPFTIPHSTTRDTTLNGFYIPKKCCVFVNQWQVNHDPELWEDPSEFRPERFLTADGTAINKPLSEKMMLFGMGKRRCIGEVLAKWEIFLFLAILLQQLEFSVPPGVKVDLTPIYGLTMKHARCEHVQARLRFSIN

[8] = target: T2, Carboxy-terminal domain RNA polymerase II polypeptide A small phosphatase 1 (Homo sapiens, UniProt Q9GZU7); assay: CTDSP1 inhibitors, concentration-response, biochemical, absorbance readout, ultra-high-throughput screen actives (AID 540297); format: functional
T2 sequence (Q9GZU7 whole entry): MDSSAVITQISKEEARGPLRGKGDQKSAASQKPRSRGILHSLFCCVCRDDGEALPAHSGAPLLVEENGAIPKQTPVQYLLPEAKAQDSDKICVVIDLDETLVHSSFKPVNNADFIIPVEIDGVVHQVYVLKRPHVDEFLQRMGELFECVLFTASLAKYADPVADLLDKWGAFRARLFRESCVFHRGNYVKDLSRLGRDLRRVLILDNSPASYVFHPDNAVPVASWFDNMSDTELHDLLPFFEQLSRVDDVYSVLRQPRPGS

[9] = target: FAD-linked sulfhydryl oxidase ALR (Homo sapiens, UniProt P55789); assay: ALR-catalysed DTT oxidation blockers – biochemical, H2O2 detection, luminescence, cherry-pick, dose response (AID 493248)
Sequence of FAD-linked sulfhydryl oxidase ALR (P55789 whole entry): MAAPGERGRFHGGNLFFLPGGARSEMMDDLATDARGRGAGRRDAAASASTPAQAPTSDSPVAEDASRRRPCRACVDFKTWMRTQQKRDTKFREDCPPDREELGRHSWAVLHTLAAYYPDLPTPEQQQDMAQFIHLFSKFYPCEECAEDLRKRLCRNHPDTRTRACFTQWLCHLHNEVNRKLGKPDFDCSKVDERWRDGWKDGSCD

[10] = target: T3, Rac GTPase-activating protein 1 (Homo sapiens, UniProt Q9H0H5); assay: blockers of MgcRacGAP-driven Rac1 GTP hydrolysis – biochemical, ADP Hunter fluorescence, primary and confirmatory, confirmation (AID 624330); format: functional
T3 sequence (Q9H0H5 whole entry): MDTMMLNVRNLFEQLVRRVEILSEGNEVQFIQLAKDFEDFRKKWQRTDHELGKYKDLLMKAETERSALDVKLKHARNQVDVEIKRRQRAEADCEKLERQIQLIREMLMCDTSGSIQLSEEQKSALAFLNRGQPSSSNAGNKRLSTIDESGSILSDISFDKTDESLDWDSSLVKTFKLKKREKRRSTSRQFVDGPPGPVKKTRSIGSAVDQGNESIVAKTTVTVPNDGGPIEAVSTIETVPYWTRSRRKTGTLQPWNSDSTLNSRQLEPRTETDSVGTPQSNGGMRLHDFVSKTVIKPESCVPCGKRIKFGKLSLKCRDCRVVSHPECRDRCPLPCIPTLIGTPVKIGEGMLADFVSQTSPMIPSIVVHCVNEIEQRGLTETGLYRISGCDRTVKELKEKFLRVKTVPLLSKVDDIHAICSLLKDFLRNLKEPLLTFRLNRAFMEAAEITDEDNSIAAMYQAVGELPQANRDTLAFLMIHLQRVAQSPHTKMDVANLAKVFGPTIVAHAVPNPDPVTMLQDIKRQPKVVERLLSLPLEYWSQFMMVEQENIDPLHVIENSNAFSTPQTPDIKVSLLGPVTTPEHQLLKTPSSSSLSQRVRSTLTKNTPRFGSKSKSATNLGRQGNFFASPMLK

[11] = fluconazole-exposed Candida albicans growth modulators – fluorescence, retest, confirmation (AID 2467); format: functional, cell-based
Cytochrome P450 2C9 = Cytochrome P450 2C9 (Homo sapiens, UniProt P11712)
Sequence of Cytochrome P450 2C9 (P11712 whole entry): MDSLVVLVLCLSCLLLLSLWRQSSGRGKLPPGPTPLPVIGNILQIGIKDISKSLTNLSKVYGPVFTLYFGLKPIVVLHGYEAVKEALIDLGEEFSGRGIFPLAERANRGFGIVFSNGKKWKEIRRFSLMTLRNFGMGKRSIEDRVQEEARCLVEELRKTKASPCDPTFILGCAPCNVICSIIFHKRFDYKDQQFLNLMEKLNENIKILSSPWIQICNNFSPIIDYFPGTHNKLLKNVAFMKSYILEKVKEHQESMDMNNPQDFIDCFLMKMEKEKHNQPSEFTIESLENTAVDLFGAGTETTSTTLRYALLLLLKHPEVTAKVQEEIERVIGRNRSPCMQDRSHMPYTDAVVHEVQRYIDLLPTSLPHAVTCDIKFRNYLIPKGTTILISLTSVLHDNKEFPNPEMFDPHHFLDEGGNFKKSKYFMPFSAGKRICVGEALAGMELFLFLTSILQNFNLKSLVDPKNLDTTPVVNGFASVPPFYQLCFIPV

Cytochrome P450 3A4 = Cytochrome P450 3A4 (Homo sapiens, UniProt P08684);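 further: CYP3A4 tested as one member of a cytochrome P450 panel screen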
Sequence of Cytochrome P450 3A4 (P08684 whole entry): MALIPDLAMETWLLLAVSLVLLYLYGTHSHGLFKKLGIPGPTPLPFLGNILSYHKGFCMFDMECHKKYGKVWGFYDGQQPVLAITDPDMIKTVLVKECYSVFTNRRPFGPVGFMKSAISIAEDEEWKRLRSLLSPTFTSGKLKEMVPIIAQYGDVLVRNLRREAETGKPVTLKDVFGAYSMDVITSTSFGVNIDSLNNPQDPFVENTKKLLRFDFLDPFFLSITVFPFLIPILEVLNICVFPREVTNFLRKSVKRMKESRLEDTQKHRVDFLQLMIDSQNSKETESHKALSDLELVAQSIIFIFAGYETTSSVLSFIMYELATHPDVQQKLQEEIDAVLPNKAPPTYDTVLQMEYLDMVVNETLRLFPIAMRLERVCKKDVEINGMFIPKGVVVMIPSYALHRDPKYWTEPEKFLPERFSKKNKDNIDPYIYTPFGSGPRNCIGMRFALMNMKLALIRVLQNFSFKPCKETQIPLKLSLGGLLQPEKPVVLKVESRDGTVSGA

[12] = luciferase reporter signal suppression in cells – H4 neuroglioma cells, luminescence, dose response (AID 1990); format: functional, cell-based
[13] = Luminescence Cell-Based Dose Response HTS to Identify Inhibitors of 5'UTR Stem-Loop Driven Prion Protein mRNA Translation in H4 Neuroglioblastoma Cells. [Related pubchem assays: 1827 (Project Summary), 1813 (Primary HTS)]; format: functional
[14] = alpha-synuclein stem-loop luciferase translation blockers – H4 neuroglioma cells, luminescence, confirmation (AID 1988); format: functional, cell-based
P388/ADR = assay: cells; format: functional; conditions: Mus musculus
SN12K1 = assay: cells; format: functional; conditions: Homo sapiens
Paired box protein Pax-8 = Paired box protein Pax-8 (Homo sapiens, UniProt Q06710); assay: PAX8 transcriptional activity inhibition in RMG-I – RMG-I cells, luciferase, cherry-pick, dose response (AID 687027); format: functional, cell-based;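 further: luciferase reporter driven by Pax8 target thyroperoxidase promoter measured by SteadyGlo luminescence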
Sequence of Paired box protein Pax-8 (Q06710 whole entry): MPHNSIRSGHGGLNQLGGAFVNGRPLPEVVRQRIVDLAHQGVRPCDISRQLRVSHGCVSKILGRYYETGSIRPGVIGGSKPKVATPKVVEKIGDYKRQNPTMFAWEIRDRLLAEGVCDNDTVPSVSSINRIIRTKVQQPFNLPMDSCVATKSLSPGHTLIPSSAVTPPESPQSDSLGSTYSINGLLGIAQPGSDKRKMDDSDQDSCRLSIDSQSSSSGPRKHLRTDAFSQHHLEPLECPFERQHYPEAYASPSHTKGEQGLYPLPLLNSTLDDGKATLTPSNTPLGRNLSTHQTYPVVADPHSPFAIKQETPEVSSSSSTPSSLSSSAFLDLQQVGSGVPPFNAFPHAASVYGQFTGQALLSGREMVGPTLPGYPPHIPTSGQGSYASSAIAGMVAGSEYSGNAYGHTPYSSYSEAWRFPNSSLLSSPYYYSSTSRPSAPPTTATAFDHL

Cytochrome P450 2C19 = Cytochrome P450 2C19 (Homo sapiens, UniProt P33261); assay: Cytochrome panel assay with activity outcomes. Panel member name: p450-cyp2c19 Compounds with AC50 equal or less than 10 uM are considered active; format: functional; conditions: read-out: AC50
Sequence of Cytochrome P450 2C19 (P33261 whole entry): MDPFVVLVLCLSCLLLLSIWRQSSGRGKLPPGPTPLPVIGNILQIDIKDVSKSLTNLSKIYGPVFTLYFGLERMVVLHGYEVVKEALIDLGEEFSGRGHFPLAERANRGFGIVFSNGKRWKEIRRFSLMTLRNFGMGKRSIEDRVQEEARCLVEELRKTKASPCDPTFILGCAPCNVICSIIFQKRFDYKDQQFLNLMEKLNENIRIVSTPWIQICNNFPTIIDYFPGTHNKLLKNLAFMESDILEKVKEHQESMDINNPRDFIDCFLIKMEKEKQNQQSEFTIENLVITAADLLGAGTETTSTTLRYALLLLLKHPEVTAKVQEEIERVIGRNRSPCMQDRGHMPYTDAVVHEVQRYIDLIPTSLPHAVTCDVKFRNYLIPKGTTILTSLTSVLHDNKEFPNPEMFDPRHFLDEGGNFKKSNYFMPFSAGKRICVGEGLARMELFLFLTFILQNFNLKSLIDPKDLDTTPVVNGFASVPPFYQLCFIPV

[15] = P. falciparum Dd2 growth inhibitors, dose response, SYBR Green, cherry-picked samples (AID 1159567); format: functional, cell-based

Sequence of Luciferin 4-monooxygenase (P08659 whole entry): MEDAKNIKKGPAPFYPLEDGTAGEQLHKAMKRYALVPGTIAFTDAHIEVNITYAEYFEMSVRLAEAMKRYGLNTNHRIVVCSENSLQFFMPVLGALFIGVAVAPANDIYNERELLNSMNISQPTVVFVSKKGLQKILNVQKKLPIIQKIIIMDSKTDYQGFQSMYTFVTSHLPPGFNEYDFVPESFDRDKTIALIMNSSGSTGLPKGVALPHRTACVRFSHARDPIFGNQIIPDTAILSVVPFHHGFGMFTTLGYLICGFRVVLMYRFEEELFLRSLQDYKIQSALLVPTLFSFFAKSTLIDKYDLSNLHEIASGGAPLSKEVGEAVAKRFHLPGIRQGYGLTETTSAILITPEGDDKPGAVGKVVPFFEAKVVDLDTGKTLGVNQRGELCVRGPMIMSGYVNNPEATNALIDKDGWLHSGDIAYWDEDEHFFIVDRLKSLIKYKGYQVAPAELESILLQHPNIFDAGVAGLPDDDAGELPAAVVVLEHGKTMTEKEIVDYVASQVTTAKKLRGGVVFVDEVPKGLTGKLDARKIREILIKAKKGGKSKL

Cc1ccc(CN2CC(C(=O)OCc3ccccc3Cl)CC2=O)cc1 (centres undefined)
IC50 (cells [1]): 7.41 µM (active)

Cc1cccc(OCc2nnc(SCC(=O)Nc3ncc(C)s3)o2)c1
EC50 [2]: > 112 µM (not active) | EC50 [3]: > 112 µM (not active)

CCOC(=O)COc1ccc(C(=O)NC2CCCCC2)cc1
IC50 (cells [1]): 7.69 µM (active)

COc1cccc(-c2nc(-c3ccc(C(=O)O)cc3)no2)c1
EC50 [2]: 0.794 µM (active) | EC50 [3]: 4.03 µM (active)

CC(=O)NC1=C(NC2CCS(=O)(=O)C2)C(=O)c2ccccc2C1=O (centres undefined)
IC50 [4]: 2.54 µM (active)

CCNc1nc(Oc2ccc(=O)n(-c3ccccc3)n2)nc(N(C)C)n1
EC50 [2]: > 112 µM (not active) | EC50 [3]: > 112 µM (not active)

CCC1(c2ccc(Cl)cc2)N=C(S)N(c2ccccc2)N1 (centres undefined)
EC50 [5]: 14.2 µM (active)

O=C(CSc1nnc(C2CC2)n1-c1ccccc1)Nc1ccc(N2CCOCC2)cc1
EC50 [2]: > 112 µM (not active) | EC50 [3]: > 112 µM (not active)

CCN(C(=O)CSc1nc[nH]n1)C1CCCCC1
EC50 (cells [6]): > 350 µM (not active) | EC50 (cells [7]): > 350 µM (not active)

COc1ccc([N+](=O)[O-])cc1C1NN=C(c2cccc3ccccc23)S1 (centres undefined)
EC50 [2]: > 112 µM (not active) | EC50 [3]: > 112 µM (not active)

CC(=O)N1CCC2(CC1)CC(=O)c1cc(OCC(=O)N3CCN(C)CC3)ccc1O2
AC50 (Cytochrome P450 1A2): 39.8 µM (inconclusive)

O=C(COC(=O)c1ccc(S(=O)(=O)N2CCCCC2)cc1)NCc1ccco1
IC50 [8]: 10.5 µM (active)

COC(=O)C1CCN(C(=O)COC(=O)CNS(=O)(=O)c2ccc(SC)c([N+](=O)[O-])c2)CC1
IC50 [8]: 13.5 µM (active)

CCc1c(C)nc2ccc(OC)cc2c1S
IC50 [4]: 0.628 µM (active)

O=C1NC(=O)N(c2ccc(C(=O)O)cc2)C(=O)/C1=C/c1c[nH]c2ccccc12
AC50 [9]: 177 nM (active) | IC50 [10]: 97.5 µM (active)

O=C(c1ccc2c(c1)OCO2)N1CCC2(CC1)Oc1ccc(F)cc1C(=O)C21CC(c2cccnc2)=NO1 (centres undefined)
EC50 [5]: 49.2 µM (active) | EC50 [11]: 0.566 µM (inconclusive)

CCOc1ccc2nc(N=C(S)N(C)C)sc2c1
EC50 [5]: > 150 µM (inactive) | EC50 [11]: 2.33 µM (active)

Cn1cc(SCC(=O)Nc2nc3ccccc3s2)c2ccccc21
EC50 [2]: > 112 µM (not active) | EC50 [3]: > 112 µM (not active)

CC1=C(C(N)=O)C(c2ccccn2)n2nc(SCc3ccccc3Cl)nc2N1 (centres undefined)
AC50 (Cytochrome P450 1A2): 15.8 µM (inconclusive) | AC50 (Cytochrome P450 2C9): 20 µM (inconclusive)

COc1ccc(CNC(=O)/C=C\c2ccc3[nH]cc(CCN(C)C)c3c2)cc1
AC50 (Cytochrome P450 1A2): 39.8 µM (inconclusive)

CC(C)Cc1nc(N2CCN(C(=O)c3ccccc3)CC2)c(C#N)c2c1CCC2
AC50 (Cytochrome P450 1A2): 25.1 µM (inconclusive)

Cc1cccc(NNC(=O)C(=O)NNc2cccc(C)c2)c1
EC50 [5]: 2.38 µM (active)

Cc1cc(Cl)nc(NC(=O)CSc2ccc(Cl)cc2)n1
AC50 (Cytochrome P450 1A2): 5.01 µM (inconclusive)

N#C/C(=C\c1ccc[nH]1)C(=O)Nc1ccccc1[N+](=O)[O-]
IC50 [8]: 7.3 µM (active)

COc1ccc(C(=O)N2CCC[C@@]3(CCN(C(=O)NC(C)C)C3)C2)cc1
AC50 (Cytochrome P450 1A2): 12.6 µM (inconclusive) | AC50 (Cytochrome P450 3A4): 20 µM (inconclusive)

COc1cnn(-c2ccc(Br)cc2)c(=O)c1SCc1ccccc1
IC50 [4]: 3.25 µM (not active)

COc1ccc(NC(=O)c2cc(S(=O)(=O)N3CCOCC3)cn2C)c(OC)c1
EC50 [2]: > 112 µM (not active) | EC50 [3]: > 112 µM (not active)

COc1ccc(/C=C(/NC(=O)c2ccccc2)c2nc3cc(Cl)ccc3[nH]2)cc1OC
EC50 [5]: > 150 µM (inconclusive) | EC50 [11]: 4.44 µM (active)

CCCCn1c(CCC(=O)O)ccc1-c1cccs1
EC50 [2]: > 112 µM (not active) | EC50 [3]: > 112 µM (not active)

C=CCOc1nc(-c2ccccc2Cl)nc2ccccc12
EC50 [12]: 69.1 µM (active) | EC50 (cells [6]): > 350 µM (not active) | EC50 [13]: > 120 µM (not active) | EC50 [14]: 17.4 µM (active) | EC50 (cells [7]): > 350 µM (not active)

O=C(NCc1ccco1)C1Cc2ccccc2CN1S(=O)(=O)c1ccccc1F (centres undefined)
IC50 [8]: 5.41 µM (active)

Cn1c(=O)c(Oc2ccc(Cl)cc2)c(O)c2ccccc21
IC50 (cells [1]): 3.7 µM (active)

O=C(Cc1ccc(Cl)cc1)Nc1ccc(Br)cc1
EC50 [5]: > 150 µM (inconclusive)

CCOc1ccc(C(C)=O)cc1N1C(=O)C2C3C=CC(C3)C2C1=O (centres undefined)
IC50 [8]: 15.8 µM (active)

CN(C)c1cccc(OC(=O)NCCCl)c1
GI50 (P388/ADR): 31 µM (inactive) | GI50 (SN12K1): > 100 µM (inactive)

CCCN(C)C[C@H]1OCCCC[C@@H](C)Oc2ccc(NC(=O)Nc3ccc(C(F)(F)F)cc3)cc2C(=O)N([C@H](C)CO)C[C@H]1C
AC50 (Paired box protein Pax-8): 23.1 µM (active)

COc1cc2c(cc1OC)C(c1ccc(N)cc1)=NNC(=O)C2
AC50 (Cytochrome P450 2C19): 15.8 µM (inconclusive) | AC50 (Cytochrome P450 1A2): 39.8 µM (inconclusive) | AC50 (Cytochrome P450 2C9): 39.8 µM (inconclusive)

Cc1cccc(OCC(=O)NCC(=O)N/N=C/c2cccnc2)c1
EC50 (cells [6]): > 350 µM (not active) | EC50 (cells [7]): > 350 µM (not active)

CCOC(=O)c1cc(C(O)(C(=O)OC)C(F)(F)F)c(/N=C/N(C)C)o1 (centres undefined)
IC50 [4]: < 0.4 µM (not active)

CCS(=O)(=O)N1CCC2(CC1)CN(C(=O)Nc1cccc(F)c1)[C@H](CO)c1c2c2ccc(OC)cc2n1C
AC50 [15]: 4.52 µM (active)

CCCc1cn([C@@H]2C[C@@H]3O[C@H](CO)CC[C@@H]3O[C@@H]2CCc2ccc(-c3cccc(OC)c3)cc2)nn1
AC50 [15]: 2.81 µM (active)
